From PubChem BioAssay (NCI)
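Interpolation was linear, between the two tested concentrations surrounding the appropriate level; five concentrations were tested over 48 hours in 96-well plates. GI50 = concentration required for 50% inhibition of growth. TGI: total growth inhibition.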

How the values were obtained:
Experiment in all cases: NCI-60 cell line screen, 48 h
A498 renal = system: A498 renal
A549 NSCLC = system: A549 NSCLC
ACHN renal = system: ACHN renal
BT-549 breast = system: BT-549 breast
CAKI-1 renal = system: CAKI-1 renal
CCRF-CEM leukemia = system: CCRF-CEM leukemia
COLO 205 colon = system: COLO 205 colon
DU-145 prostate = system: DU-145 prostate
EKVX NSCLC = system: EKVX NSCLC
HCC-2998 colon = system: HCC-2998 colon
HCT-116 colon = system: HCT-116 colon
HCT-15 colon = system: HCT-15 colon
HL-60(TB) leukemia = system: HL-60(TB) leukemia
HOP-62 NSCLC = system: HOP-62 NSCLC
HOP-92 NSCLC = system: HOP-92 NSCLC
HS 578T breast = system: HS 578T breast
HT29 colon = system: HT29 colon
IGROV1 ovarian = system: IGROV1 ovarian
K-562 leukemia = system: K-562 leukemia
KM12 colon = system: KM12 colon
LOX IMVI melanoma = system: LOX IMVI melanoma
M14 melanoma = system: M14 melanoma
MALME-3M melanoma = system: MALME-3M melanoma
MCF7 breast = system: MCF7 breast
MDA-MB-231 breast = system: MDA-MB-231 breast
MOLT-4 leukemia = system: MOLT-4 leukemia
NCI-H226 lung = system: NCI-H226 lung
NCI-H23 lung = system: NCI-H23 lung
NCI-H460 lung = system: NCI-H460 lung
NCI-H522 lung = system: NCI-H522 lung
NCI/ADR-RES ovarian = system: NCI/ADR-RES ovarian
OVCAR-3 ovarian = system: OVCAR-3 ovarian
OVCAR-4 ovarian = system: OVCAR-4 ovarian
OVCAR-5 ovarian = system: OVCAR-5 ovarian
OVCAR-8 ovarian = system: OVCAR-8 ovarian
PC-3 prostate = system: PC-3 prostate
RPMI-8226 leukemia = system: RPMI-8226 leukemia
RXF 393 renal = system: RXF 393 renal
SF-268 CNS = system: SF-268 CNS
SF-295 CNS = system: SF-295 CNS
SK-MEL-2 melanoma = system: SK-MEL-2 melanoma
SK-MEL-28 melanoma = system: SK-MEL-28 melanoma
SK-MEL-5 melanoma = system: SK-MEL-5 melanoma
SK-OV-3 ovarian = system: SK-OV-3 ovarian
SN12C renal = system: SN12C renal
SNB-19 CNS = system: SNB-19 CNS
SNB-75 CNS = system: SNB-75 CNS
SR leukemia = system: SR leukemia
SW-620 colon = system: SW-620 colon
T-47D breast = system: T-47D breast
TK-10 renal = system: TK-10 renal
U251 CNS = system: U251 CNS
UACC-257 melanoma = system: UACC-257 melanoma
UACC-62 melanoma = system: UACC-62 melanoma
UO-31 renal = system: UO-31 renal

CO[C@H]1/C=C(/C)CCC[C@H](C)[C@H](O)[C@@H](C)C(=O)C(C)(C)[C@@H](O)CC(=O)O[C@@H]1/C(C)=C/c1csc(C)n1
GI50 (A498 renal): 23.4 nM
TGI (A498 renal): > 100000 nM
GI50 (A549 NSCLC): 21.9 nM
TGI (A549 NSCLC): > 100000 nM
GI50 (ACHN renal): 55.5 nM
TGI (ACHN renal): > 100000 nM
GI50 (BT-549 breast): 49.8 nM
TGI (BT-549 breast): > 100000 nM
GI50 (CAKI-1 renal): 23.8 nM
TGI (CAKI-1 renal): > 100000 nM
GI50 (CCRF-CEM leukemia): 30 nM
TGI (CCRF-CEM leukemia): > 100000 nM
GI50 (COLO 205 colon): 15.9 nM
TGI (COLO 205 colon): 75.5 nM
GI50 (DU-145 prostate): 25.9 nM
TGI (DU-145 prostate): 81.7 nM
GI50 (EKVX NSCLC): 43.2 nM
TGI (EKVX NSCLC): > 100000 nM
GI50 (HCC-2998 colon): 20.3 nM
TGI (HCC-2998 colon): 259 nM
GI50 (HCT-116 colon): < 12.9 nM
TGI (HCT-116 colon): > 100000 nM
GI50 (HCT-15 colon): < 12.8 nM
TGI (HCT-15 colon): > 100000 nM
GI50 (HL-60(TB) leukemia): < 10 nM
TGI (HL-60(TB) leukemia): > 100000 nM
GI50 (HOP-62 NSCLC): 41.4 nM
TGI (HOP-62 NSCLC): > 100000 nM
GI50 (HOP-92 NSCLC): 38 nM
TGI (HOP-92 NSCLC): > 100000 nM
GI50 (HS 578T breast): 23.4 nM
TGI (HS 578T breast): > 100000 nM
GI50 (HT29 colon): < 10 nM
TGI (HT29 colon): 525 nM
GI50 (IGROV1 ovarian): 24.1 nM
TGI (IGROV1 ovarian): > 100000 nM
GI50 (K-562 leukemia): < 17.3 nM
TGI (K-562 leukemia): > 100000 nM
GI50 (KM12 colon): < 12.9 nM
TGI (KM12 colon): > 100000 nM
GI50 (LOX IMVI melanoma): 16.2 nM
TGI (LOX IMVI melanoma): > 100000 nM
GI50 (M14 melanoma): 21.8 nM
TGI (M14 melanoma): > 100000 nM
GI50 (MALME-3M melanoma): 17 nM
TGI (MALME-3M melanoma): > 100000 nM
GI50 (MCF7 breast): < 10 nM
TGI (MCF7 breast): > 100000 nM
GI50 (MDA-MB-231 breast): 42.8 nM
TGI (MDA-MB-231 breast): > 100000 nM
GI50 (MOLT-4 leukemia): 35.9 nM
TGI (MOLT-4 leukemia): > 100000 nM
GI50 (NCI-H226 lung): 32.4 nM
TGI (NCI-H226 lung): > 100000 nM
GI50 (NCI-H23 lung): 34.9 nM
TGI (NCI-H23 lung): > 100000 nM
GI50 (NCI-H460 lung): < 10 nM
TGI (NCI-H460 lung): > 100000 nM
GI50 (NCI-H522 lung): < 10 nM
TGI (NCI-H522 lung): 22.4 nM
GI50 (NCI/ADR-RES ovarian): 25.2 nM
TGI (NCI/ADR-RES ovarian): 128 nM
GI50 (OVCAR-3 ovarian): < 16.1 nM
TGI (OVCAR-3 ovarian): 111 nM
GI50 (OVCAR-4 ovarian): 71 nM
TGI (OVCAR-4 ovarian): > 100000 nM
GI50 (OVCAR-5 ovarian): 43.6 nM
TGI (OVCAR-5 ovarian): > 100000 nM
GI50 (OVCAR-8 ovarian): 27.7 nM
TGI (OVCAR-8 ovarian): > 100000 nM
GI50 (PC-3 prostate): 36.1 nM
TGI (PC-3 prostate): > 100000 nM
GI50 (RPMI-8226 leukemia): 70.5 nM
TGI (RPMI-8226 leukemia): > 100000 nM
GI50 (RXF 393 renal): 18.7 nM
TGI (RXF 393 renal): 72.5 nM
GI50 (SF-268 CNS): 34.6 nM
TGI (SF-268 CNS): > 100000 nM
GI50 (SF-295 CNS): < 16.8 nM
TGI (SF-295 CNS): 279 nM
GI50 (SK-MEL-2 melanoma): 18.6 nM
GI50 (SK-MEL-28 melanoma): 44.5 nM
TGI (SK-MEL-28 melanoma): > 100000 nM
GI50 (SK-MEL-5 melanoma): 18.6 nM
TGI (SK-MEL-5 melanoma): > 100000 nM
GI50 (SK-OV-3 ovarian): 27.2 nM
TGI (SK-OV-3 ovarian): > 77200 nM
GI50 (SN12C renal): 48.8 nM
TGI (SN12C renal): > 100000 nM
GI50 (SNB-19 CNS): 48.6 nM
TGI (SNB-19 CNS): > 100000 nM
GI50 (SNB-75 CNS): < 10 nM
TGI (SNB-75 CNS): 31.9 nM
GI50 (SR leukemia): 15.1 nM
TGI (SR leukemia): > 58200 nM
GI50 (SW-620 colon): < 14.8 nM
TGI (SW-620 colon): > 100000 nM
GI50 (T-47D breast): 66.8 nM
TGI (T-47D breast): > 100000 nM
GI50 (TK-10 renal): 36.6 nM
TGI (TK-10 renal): > 100000 nM
GI50 (U251 CNS): 14.3 nM
TGI (U251 CNS): > 100000 nM
GI50 (UACC-257 melanoma): 45.2 nM
TGI (UACC-257 melanoma): > 100000 nM
GI50 (UACC-62 melanoma): 28.7 nM
TGI (UACC-62 melanoma): > 100000 nM
GI50 (UO-31 renal): 33.4 nM
TGI (UO-31 renal): > 100000 nM
